Experimental data taken from patent US20040224935A1, “Topical antiandrogenic steroids” (Endorecherche, Inc., priority 2003, published 2004).
Where two headings read alike, the source gives them in different places.

Experiments:
[1] = test system: Hamster's ear sebaceous glands; assay: Topical antiandrogenic activity, histomorphometry of the ear sebaceous glands in the hamster; type: in vivo, Male Golden Syrian hamster; settings: Mesocricetus auratus, 336 h, once daily, 14 days, sebaceous gland area, read-out: Antiandrogenic activity in Hamster's sebaceous glands Inh. Vs Cx (%); for inhibition in vivo at 0.001 mg: dose 1 μg applied topically on left ear of intact male hamster; for inhibition in vivo at 0.003 mg: dose 3 μg applied topically on left ear of intact male hamster; for inhibition in vivo at 0.01 mg: dose 10 μg applied topically on left ear of intact male hamster
Description: Column 3 represents the dose of antiandrogenic compounds applied on the left ear of the intact male hamster.
Column 4 represents the relative inhibition in % of the area of the sebaceous gland of the left ear versus control hamster. Higher values approaching the effect of castration are preferable
The Antiandrogenic activity of antiandrogenic compounds has been measured using a Histomorphometry assay of the Ear Sebaceous Glands in the Hamster
1. Animals Male Golden Syrian, Hamster (SYR) of 110-120 g were obtained from Harlan Sprague Dawlay (Madison, USA) and housed up to 2 per cage in plastic cages in a temperature (22±3° C.) and light (12 h light/day, lights on at 7 h 15) in a controlled environment. The hamsters were fed with Certified Rodent Diet 5002 (pellet) and tap water ad libitum. The animals were acclimated for at least five days before the beginning of the study. Animals were randomly assigned to groups of eight hamsters. One group of hamsters was castrated under isoflurane-induced anesthesia on the day of dosing initiation (SD 1) and used as control group.
2. Treatments To evaluate the antiandrogenic activity, tested compounds were applied topically on the inner part of the left ear, once daily, for 14 days. Ten μL solution of acetone: ethanol: propylene Glycol (1:1:2; v:v:v) containing 0.1, 0.3 or 1.0 mg/mL of tested compound was carefully applied onto a region between the two cartilage ridges of the ventral surface of left pinna. For animals in the castrated and intact control groups ten-μL vehicle was applied onto the left ear. No solution will be applied on the right ear for any animals of the study.
3. Postmortem Observations and Measurements On Study Day 15, the hamsters were euthanized by cervical dislocation under isoflurane anesthesia. The left and right ears were collected attached together by the head skin, flat fixed on a paper and were immersed in 10% neutral buffered formalin. From the flat fixed ear and using paper puncture that makes a hole of 6 mm, the region where solution was applied was collected from each ear. Using a scalpel blade, the collected 6 mm round ear specimen was cut in the middle between the two cartilage ridges. The two equal parts of the ear round specimen were embedded in paraffin. After processing the tissue, the two parts were vertically embedded parallel to each other in a way that the flat 6 mm area was facing out. From each paraffin block, one section (5 μm thick) was cut and collected on a glass slide. Thus, each slide contained two elongated sections of 6 mm length. Slides were stained with hematoxylin and eosin.
4. Analysis of Sebaceous Gland Area Using the video camera and objective lens number X5 of the light microscope, the resulting field that appears on the screen has a length of 0.953 mm. From the glass slide, when we have examined the first 6 mm long section from the left to the right, the first and second fields were ignored and the third and fourth fields were captured for analysis by the image analyzer. Each field has the length of 0.953 mm. With the help of the screen mouse, the sebaceous glands within the whole field length (0.953mm) were marked. Also, an area with the length of the whole field and the height between stratum granulosum and the upper edge of the cartilage was drawn.
The image analyzer calculated the total area of the sebaceous glands (μm^2) in each examined field. We also obtained the area, which has the length of 0.953 mm and the height between stratum granulosum and the cartilage. In addition, the percentage of the area occupied by the glands was obtained. Thus, for each ear, two sections were cut and two fields from each section were analyzed. The total of the four readings was averaged and the mean standard of error calculated by the image analyzer. The results were expressed in μm^2 as the total surface of glands per field and also as percentage of the area occupied by the glands.

[2] = test system: Shionogi mouse mammary carcinoma cells; assay: In vitro androgenic/antiandrogenic activity, DHT-stimulated Shionogi cell number; type: cell-based; settings: for Shionogis (In Vitro) VS OH-FLU (ratio of Ki of hydroxyflutamide versus tested compound): OH-Flu = 1, DHT-stimulated cell number, higher values preferable
rat seminal vesicle = assay: Systemic antiandrogenic activity in immature male rats (castrated, DHT implant), seminal vesicle weight; settings: po, 168 h, 0.5 mg/animal per os once daily 7 days, % efficacy relative to inhibition by flutamide, read-out: RAT (in vivo) (systemic) SV Inh % inh. (0.5 mg, per os)
Method: Column 6 represents the % of antiandrogenic efficacy on the rat seminal vesicle, relative to the percentage of inhibition by flutamide calculated by the formula:
(§1) % efficacy versus Flu=100×% inhib (compound)/% inhib (Flu).
(§2) Where the percentage of inhibition (% inhib) is calculated by the following formula:
(§3) % Inhib=100−[W (compound)−W (control)/W (DHT)−W (control)]×100.
W is the weight of the seminal vesicle.
(§4) C Systemic antiandrogenic activity (immature male rats)
(§5) 1. Animals Immature male rats (Crl:CD(SD)Br) 22 to 24-day old were obtained from Charles-River, Inc. (St-Constant, Quebec, Canada) and housed up to 5 per cage in plastic bins in a temperature (23±1° C.)—and light (12 h light/day, lights on at 7h15)—controlled environment. The rats were fed rodent chow and tap water ad libitum. The day following their arrival, the animals were orchidectornized (CX) under Isoflurane anesthesia via scrotal route and randomly assigned to groups of 5 animals. One silastic implant of dihydrotestosterone (DHT; length of implant: 1 cm) was inserted subcutaneously in the dorsal area of animals at the time of orchidectomy. One group of 5 animals was CX only as control (no DHT implant inserted).
(§6) 2. Treatments To evaluate the antiandrogenic activity, tested compounds were administered orally by gavage once daily at a dose of 0.5 mg/animal for 7 days (SD 1 to 7). Compounds were solubilized (when possible) in dimethylsulfoxide (DMS, 10% final concentration) and administered as suspension in 0.4% methylcellulose. Rats in CX control and CX+DHT control groups received the vehicle alone during the 7-day period. One group of animals received the antiandrogen Flutamide as reference. The animals were killed by cervical dislocation under isoflurane anesthesia on the 8th morning following castration. The ventral prostate and seminal vesicles were rapidly dissected and weighed.
(§7) 3. Calculations and Statistical Analysis The percentage of inhibition (% inhib) is calculated by the following formula:
(§8) This percentage is reported as % of efficacy, relatively to the percentage of inhibition of flutaride calculated by the formula: % efficacy versus Flu=100×% inhib (compound)/% inhib (Flu).
(§9) W is the weight of the prostate or the seminal vesicle.

rat prostate = assay: Systemic antiandrogenic activity in immature male rats (castrated, DHT implant), prostate weight; settings: po, 168 h, 0.5 mg/animal per os once daily 7 days, % efficacy relative to inhibition by flutamide, read-out: RAT (in vivo) (systemic) Prostate Inh. % inh. (0.5 mg, per os)
Method: Column 5 represents the % of antiandrogenic efficacy in rat prostate, relatively to the percentage of inhibition of flutamide calculated by the formula:
as §1, §2
% lnhib=100−[W (compound)−W (control)/W (DHT)−W (control)]×100.
W is the weight of the prostate.
as §4, §5, §6, §7, §3, §8, §9

[3] = Mus musculus, read-out: Shionogis (In Vitro) IC50(nM), inhibition of DHT-stimulated cell number, 10-12 days

SMILES | inhibition in vivo at 0.001 mg [1] [%] | inhibition in vivo at 0.003 mg [1] [%] | inhibition in vivo at 0.01 mg [1] [%] | IC50 [2, 3] [nM] | IC50 ([2]; read-out: Shionogis (In Vitro) IC50, inhibition of DHT-stimulated cell number, 10-12 days) [nM] | inhibition in vivo at 0.5 mg (rat seminal vesicle) [%] | inhibition in vivo at 0.5 mg (rat prostate) [%] | Shionogis (In Vitro) VS OH-FLU (ratio of Ki of hydroxyflutamide versus tested compound) [2]
CC1(C)CC2C3CCc4c(C#N)cccc4C3CC[C@]2(C)[C@H]1O (stereo partly drawn) [EM-2557] | 52.4 | 42.8 | 66.6 | 15 | 18 | 0 | 6 | 
CC#C[C@@H]1CC2C3CCc4c(C#N)cccc4C3CC[C@]2(C)[C@H]1O (stereo partly drawn) [EM-2627] | 14.3 | 42.8 | 66.6 | 7.8 |  | 25 | 0 | 8.3
CCC=C[C@]1(O)CCC2C3CCc4c(C#N)cccc4C3CC[C@@]21C (stereo partly drawn) [EM-3144] | 9.5 | 71.4 | 71.4 | 4.4 |  | 12 | 8 | 8.5
CCCC#C[C@@H]1CC2C3CCc4c(C#N)cccc4C3CC[C@]2(C)[C@H]1O (stereo partly drawn) [EM-3165] | 19 | 14.3 | 23.8 | 15.1 |  | 14 | 1 | 7.2
CC(C)C#C[C@]1(O)CCC2C3CCc4c(C#N)cccc4C3CC[C@@]21C (stereo partly drawn) [EM-3166] | 47.6 | 66.6 | 76.2 | 21.8 |  | 15 | 0 | 5.0
CC(=O)O[C@H]1C(C)(C)CC2C3CCc4c(C#N)cccc4C3CC[C@@]21C (stereo partly drawn) [EM-3178] | 9.5 | 9.5 | 38.1 | 17 |  | 0 | 0 | 4.1
CC[C@@]1(C)C[C@H]2[C@@H]3CCc4c(C#N)cccc4[C@H]3CC[C@]2(C)C1=O [EM-3180, 4-cyano-16α-methyl-16β-ethyl-1,3,5(10)-estratrien-17-one] | 57.1 | 90.5 | 95.2 | 35 |  | 0 | 0 | 2
CC[C@]1(C)CC2C3CCc4c(C#N)cccc4C3CC[C@]2(C)C1=O (stereo partly drawn) [EM-3217] | 4.8 | 0 | 42.8 |  |  |  |  | ˜1
CC[C@@]1(C)C[C@H]2[C@@H]3CCc4c(C#N)cccc4[C@H]3CC[C@]2(C)[C@H]1O [EM-3221, 4cyano-16α-methyl-16β-ethyl-1,3,5(10)-estratrien-17β-ol] | 0 | 9.5 | 33.3 | 3.2 |  | 1 | 0 | 6.6
C[C@@H]1CC2C3CCc4c(C#N)cccc4C3CC[C@]2(C)C1=O (stereo partly drawn) [EM-3223] | 25.9 | 37 | 59.2 |  |  | 18 | 0 | 
CC[C@]1(C)CC2C3CCc4c(C#N)cccc4C3CC[C@]2(C)[C@H]1O (stereo partly drawn) [EM-3226] | 7.4 | 29.6 | 33.3 | 3.6 |  | 0 | 0 | 5.9
CCC1(CC)CC2C3CCc4c(C#N)cccc4C3CC[C@]2(C)C1=O (stereo partly drawn) [EM-3411] | 3.7 | 14.8 | 62.9 |  |  | 10 | 0 | ˜1
CC1(C)CC2C3CCc4c(Cl)cccc4C3CC[C@]2(C)[C@H]1O (stereo partly drawn) [EM-3415] | 0 | 11.1 | 44.4 | 26 |  | 0 | 0 | 2.5
C[C@]12CCC3c4cccc(C#N)c4CCC3C1C[C@@H](C#CC1CC1)[C@@H]2O (stereo partly drawn) [EM-3473] | 7.4 | 0 | 14.8 | 9.3 |  | 0 | 0 | 9
CC1(C)C[C@H]2[C@@H]3CCc4cc(F)ccc4[C@H]3CC[C@]2(C)[C@H]1O [EM-3497, 3fluoro-16,16-dimethyl-1,3,5(10)-estratrien-17β-ol] | 62.9 | 62.9 | 77.7 | 46 |  | 0 | 0 | 1.5
